PMC9127750, “Structure-based design of CDC42 effector interaction inhibitors for the treatment of cancer” (Cell reports, 2022)

Tested on: WM3248 melanoma cells, 486 antibodies
Test: Reverse phase protein arrays (RPPA)
Format: cell-based, Human
Conditions: 10 uM, Average
From the text: Pellets were snap frozen in liquid nitrogen and shipped to MD Anderson Cancer Center core RPPA facility for RPPA analysis (Table S5). Three biological replicates for each sample were generated.
Nomenclatures on the RPPA heatmaps: name_of_antibody.species_of_antibody.status_of_antibody. V - antibody validated; C - validation of antibody in progress; Q - antibody nonspecific; E – under evaluation; antibodies raised in M - mouse, G - goat, R - rabbit, or T - rat.

In the case of CN(C)c1cccc(Nc2cc(-c3ccccc3)nc(C3CCNCC3)n2)c1 [ARN22089, N1,N1-dimethyl-N3-(6-phenyl-2-(piperidin-4-yl)pyrimidin-4-yl)benzene-1,3-diamine], the “RPPA Gli1.R.C” value was 1.007, the “RPPA Gli3.R.C” value was 0.971 and the “RPPA Glucocorticoid.Receptor.R.V” value was 1.081. For the same compound, the “RPPA Glutamate.D1.2.R.V” value was 1.054, the “RPPA Glutaminase.R.C” value was 0.935 and the “RPPA Granzyme.B.R.V” value was 0.974. The “RPPA Grp75.R.C” value was 1.080, the “RPPA Gys.R.V” value was 0.978 and the “RPPA Gys_pS641.R.V” value was 1.007. For the same compound, the “RPPA H2AX_pS139.R.C” value was 0.966, the “RPPA HER2.M.V” value was 1.022 and the “RPPA HER3.R.V” value was 0.985. For the same compound, the “RPPA HER3_pY1289.R.C” value was 0.975, the “RPPA HES1.R.V” value was 0.990 and the “RPPA Heregulin.R.V” value was 0.902. The “RPPA X4E.BP1.R.V” value was 0.842, the “RPPA X4E.BP1_pS65.R.V” value was 1.009 and the “RPPA X4E.BP1_pT37_T46.R.V” value was 1.014. The “RPPA X14.3.3.zeta.R.V” value was 1.029, the “RPPA X14.3.3εM.C” value was 1.000 and the “RPPA X53BP1.R.V” value was 0.942. For the same compound, the “RPPA b.Actin.R.C” value was 1.019, the “RPPA b.Catenin_pT41_S45.R.V” value was 1.005 and the “RPPA c.Abl.R.V” value was 1.077. For the same compound, the “RPPA c.Abl_pY412.R.C” value was 0.962, the “RPPA c.IAP2.R.C” value was 1.022 and the “RPPA eIF4E.R.V” value was 0.979. For the same compound, the “RPPA eIF4E_pS209.R.V” value was 1.021, the “RPPA eIF4G.R.C” value was 0.929 and the “RPPA level HLA.DQA1.R.V” value was 1.033. For the same compound, the “RPPA level HLA.DR.DP.DQ.DX.R.C” value was 0.982, the “RPPA level HMHA1.R.V” value was 0.975 and the “RPPA level HSP27.M.C” value was 1.029. For the same compound, the “RPPA level HSP27_pS82.R.V” value was 0.988, the “RPPA level HSP70.R.C” value was 0.942 and the “RPPA level Hexokinase.II.R.V” value was 0.989. The “RPPA level Hif.1αR.C” value was 0.977, the “RPPA level Histone.H3.R.V” value was 0.887 and the “RPPA level IDO.R.C” value was 1.004. The “RPPA level IGF1R_pY1135_Y1136.R.V” value was 0.943, the “RPPA level IGFBP2.R.V” value was 0.781 and the “RPPA level IGFBP3.M.V” value was 0.976. For the same compound, the “RPPA level IGFRb.R.C” value was 0.929, the “RPPA level IL.6.R.C” value was 0.956 and the “RPPA level IMP3.R.C” value was 1.001. For the same compound, the “RPPA level IR.b.R.C” value was 1.049, the “RPPA level IRF.1.R.V” value was 0.861 and the “RPPA level IRS1.R.V” value was 0.974. The “RPPA level IRS2.R.C” value was 0.998, the “RPPA level JAB1.M.C” value was 1.013 and the “RPPA level JNK2.R.V” value was 1.853. For the same compound, the “RPPA level JNK_pT183_Y185.R.C” value was 0.981, the “RPPA level Jagged1.R.V” value was 0.989 and the “RPPA level Jak2.R.V” value was 0.961. The “RPPA level KAP1.R.V” value was 0.913, the “RPPA level KEAP1.R.V” value was 0.975 and the “RPPA level LC3A.B.R.C” value was 0.954. For the same compound, the “RPPA level LCN2.R.V” value was 1.252, the “RPPA level LDHA.R.C” value was 1.005 and the “RPPA level LRP6_pS1490.R.V” value was 0.929. The “RPPA level Lck.R.V” value was 0.974, the “RPPA level MACC1.R.V” value was 1.049 and the “RPPA level MAPK_pT202_Y204.R.C” value was 0.956. The “RPPA level MCT4.R.V” value was 0.820, the “RPPA level MDM2_pS166.R.V” value was 1.004 and the “RPPA level MEK1.R.V” value was 1.435. For the same compound, the “RPPA level MEK1_pS217_S221.R.V” value was 0.992, the “RPPA level MEK2.R.V” value was 0.978 and the “RPPA level MERIT40.R.C” value was 0.950. The “RPPA level MERIT40_pS29.R.V” value was 1.020, the “RPPA level METTL3.R.V” value was 1.051 and the “RPPA level MIF.R.C” value was 1.063. For the same compound, the “RPPA level MIG6.R.V” value was 1.022, the “RPPA level MLH1.M.V” value was 0.972 and the “RPPA level MLKL.R.V” value was 0.916. For the same compound, the “RPPA level MMP2.R.V” value was 0.984, the “RPPA level MMP14.R.V” value was 1.009 and the “RPPA level MRAP.R.C” value was 1.048. For the same compound, the “RPPA level MSH2.R.C” value was 1.016, the “RPPA level MSH6.R.C” value was 0.997 and the “RPPA level MSI2.R.C” value was 0.997.
